According to patent US4338331A, “Isoindoline derivative and a therapeutic composition thereof” (priority 1979, dated 1982):
Values joined by “and” are separate entries in the source; they are usually repeats but may differ in a detail not shown here. Identical values can stand only once. “Also recorded” adds a separate entry of the source.

Key:
female Wistar rats = experiment: Effect on spontaneous diuresis (TABLE 3); type: in vivo, Wistar rat; conditions: 5 mg/kg oral; for Excreted sodium/potassium ratio: 12 h; for Potassium excretion / Sodium excretion: spontaneous diuresis
Description: These investigations were carried out on Wistar rats of both sexes, having a body weight which is specified in each case in the relative tables, which compare the results with Indapamide. Both the CM/1 and the Indapamide were administered orally after being suitably dissolved in the following solvent:
(§1) The controls were treated with an equal volume of solvent. The experiments were carried out on animals which had regularly fasted for at least 12 hours, but had free access to water.
(§2) The sodium and potassium in the urine were determined by a photometric method.
Finally, the effect on the new product of spontaneous diuresis was determined.
These investigations were carried out on 15 female Wistar rats having a body weight varying from 230 to 260 g, and divided at random into three groups of 5. The animals were kept in individual metabolic cages overnight for a period of 12 hours in order to collect the urine spontaneously excreted. One group was treated as usual with 1 ml/kg of solvent by means of a gastric probe, and the other two were treated respectively with 5 mg/kg of Indapamide and 5 mg/kg of CM/1. The sodium and potassium were analysed as usual in the urine collected.

[1] = tested on: rat with spontaneous hypertension (SHR); experiment: Hypotensive activity: arterial pressure of the rat with spontaneous hypertension (TABLE 4); type: in vivo, SHR male rats; conditions: 1.2 mg/kg/day oral
Description: The effects of subacute oral treatment with CM/1 on the arterial pressure of the rat with spontaneous hypertension (SHR) were followed on 10 genetically hypertensive (SHR) male rats obtained from Charles River. They were divided at random into two groups of 5 each, and treated in the following manner:
GROUP A: CONTROLS--10% gum arabic, 5 ml/kg/day by oral administration using a gastro-oesophageal probe;
GROUP B: CM/1--1.2 mg/5 ml of gum arabic/kg/day by oral administration using a gastro-oesophageal probe.
The treatment was carried out for 28 consecutive days. The arterial pressure was recorded at regular intervals by the bloodless method, using the "BP Recorder 8005" apparatus of "W+W Electronic".
The measurement was made in the following manner: the tail of the animals was carefully depilated and then inserted into a sleeve of suitable diameter connected by a tube to a pump and a pressure gauge. The tail was then inserted into a circular transducer, which was connected to a pulse counter. When the apparatus was switched on, the pressure increased in the sleeve until the blood flow was arrested.
The pressures were now read from the pressure gauge.
Before beginning the experiments, the animals had been subjected for a week to this procedure in order to accustom them to handling.

male Wistar rat = experiment: Chronic (subacute) toxicity, 28 days oral, male rat; type: in vivo; conditions: 20 mg/kg and 40 mg/kg, printed '48 consecutive days'
male rats = experiment: Diuretic and saluretic activity: excretion of a load of distilled water (TABLE 2); type: in vivo, Wistar rat; conditions: 5 mg/kg oral + aqueous load
Description: Both the CM/1 and the Indapamide were administered orally after being suitably dissolved in the following solvent:
as §1, §2
The rats were then immediately placed in individual metabolic cages. The urine was collected over 4 hours. The quantity has been expressed in the usual manner as a percentage of the volume administered.
Sodium and potassium were also analysed, and these have been expressed as mEq/4h.
After two days, in the preceding manner, the same rats were treated with Indapamide, and after a further two days with the product CM/1. In the interval between one test and the other, the rats were housed and fed in the normal manner. The dose used for both compounds was the same as previously, i.e. 5 mg/kg.

[2] = individual rats, base of rats 1-5: 235, 215, 260, 265, 250

CC1c2ccccc2CN1NC(=O)c1ccc(Cl)c(S(N)(=O)=O)c1 (stereo not shown) [CM/1, 1-methyl-2-(3'-sulphamyl-4'-chlorobenzamido)-isoindoline]
diuretic action (female Wistar rats): marked diuretic action, which is stronger in the case of the product CM/1 | ratio of sodium to potassium excretion, CM/1 compared with Indapamide (female Wistar rats): higher in the group treated with the product CM/1, and the difference reaches statistical significance | sodium and potassium excretion (female Wistar rats): increased | Excreted sodium/potassium ratio (female Wistar rats; individual rats): 1.651 and 2.262 and 2.277 and 2.188 and 1.746 | Excreted sodium/potassium ratio (female Wistar rats; mean ± standard error, n = 5): 2.024 ± 0.134 | ml of urine collected in 12 hours (female Wistar rats; individual rats): 10.5 mL and 17.5 mL and 21.0 mL and 16.6 mL and 15.0 mL | ml of urine collected in 12 hours (female Wistar rats; mean ± standard error, n = 5): 16.12 ± 1.71 mL | Potassium excretion (female Wistar rats; individual rats): 3.708 mEq/12h and 3.042 mEq/12h and 3.911 mEq/12h and 3.508 mEq/12h and 3.430 mEq/12h | Sodium excretion (female Wistar rats; individual rats): 6.123 mEq/12h and 6.880 mEq/12h and 8.906 mEq/12h and 7.675 mEq/12h and 5.989 mEq/12h | Potassium excretion (female Wistar rats; mean ± standard error, n = 5): 3.5198 ± 0.145 mEq/12h | Sodium excretion (female Wistar rats; mean ± standard error, n = 5): 7.114 ± 0.539 mEq/12h | Systolic arterial pressure measured bloodlessly, 7th day of treatment [1, 2]: 210 mm Hg and 205 mm Hg and 245 mm Hg and 225 mm Hg | Systolic arterial pressure measured bloodlessly, 14th day of treatment [1, 2]: 195 mm Hg and 215 mm Hg and 235 mm Hg and 200 mm Hg and 220 mm Hg | Systolic arterial pressure measured bloodlessly, 21st day of treatment [1, 2]: 195 mm Hg and 210 mm Hg and 220 mm Hg and 180 mm Hg | Systolic arterial pressure measured bloodlessly, 28th day of treatment [1, 2]: 185 mm Hg and 210 mm Hg and 205 mm Hg | Systolic arterial pressure measured bloodlessly, 7th day of treatment ([1]; mean, n = 5, base 245.0 ± 9.08): 219.0 ± 7.31 mm Hg | Systolic arterial pressure measured bloodlessly, 14th day of treatment ([1]; mean, n = 5, base 245.0 ± 9.08): 213.0 ± 7.17 mm Hg | Systolic arterial pressure measured bloodlessly, 21st day of treatment ([1]; mean, n = 5, base 245.0 ± 9.08): 203.0 ± 7.00 mm Hg | Systolic arterial pressure measured bloodlessly, 28th day of treatment ([1]; mean, n = 5, base 245.0 ± 9.08): 198.0 ± 5.38 mm Hg | maximum reduction of the systolic arterial pressure ([1]; recording on the 28th day): 20% | anti-hypertensive activity ([1]; SHR, 28 days, 1.2 mg/kg/day): significantly reduces the systolic arterial pressure; also recorded: shows anti-hypertensive activity | damaging side-effects (male Wistar rat): no damagingside-effects | activity of CM/1 compared with Indapamide (male rats): more active than the Indapamide | diuretic and saluretic action (male rats): significant diuretic and saluretic action | RATIO Na/K (sodium to potassium excreted) (male rats; 4 h, average): 2.6955 | Cumulative percent excretion at 1 hour from load (male rats; individual rats): 58.1% and 50.0% and 7.1% and 55.2% and 51.6% | Cumulative percent excretion at 2 hours from load (male rats; individual rats): 109.7% and 78.6% and 57.1% and 110.4% and 125.8% | Cumulative percent excretion at 3 hours from load (male rats; individual rats): 116.2% and 107.2% and 85.7% and 134.5% and 145.2% | Cumulative percent excretion at 4 hours from load (male rats; individual rats): 116.2% and 121.4% and 114.3% and 134.5% and 167.8% | Potassium excretion (male rats; individual rats): 0.00542 mEq/4h and 0.00512 mEq/4h and 0.00603 mEq/4h and 0.00856 mEq/4h and 0.01399 mEq/4h | Sodium excretion (male rats; individual rats): 0.01374 mEq/4h and 0.01362 mEq/4h and 0.0125 mEq/4h and 0.01671 mEq/4h and 0.04889 mEq/4h | Cumulative percent excretion at 1 hour from load (male rats; mean of 5 rats): 44.4% | Cumulative percent excretion at 2 hours from load (male rats; mean of 5 rats): 96.32% | Cumulative percent excretion at 3 hours from load (male rats; mean of 5 rats): 117.76% | Cumulative percent excretion at 4 hours from load (male rats; mean of 5 rats): 130.84 ± 9.89% | Potassium excretion (male rats; mean of 5 rats): 0.007824 mEq/4h | Sodium excretion (male rats; mean of 5 rats): 0.02109 mEq/4h
